From patent US9271978B2 (Zenith Epigenetics Corp., priority 2012, dated 2016)

Tests used:
[1] = biological target: T1, second bromodomain of Brd2 (BRD2(2)) (Homo sapiens, UniProt P25440); assay: Inhibition of tetra-acetylated histone H4 binding to Brd2 bromodomain 2 (TR-FRET); design: key: Active: Compounds with an IC50 value less than 30 μM were deemed to be active.; Not Active: Compounds with an IC50 value less than 30 μM were deemed to be active; settings: tetra-acetylated histone H4 peptide, active = IC50 <30 μM
T1 construct: made in house; host or cells: E. coli BL21 (DE3)
Description: (§1) Proteins were cloned and overexpressed with a N-terminal 6×His tag, then purified by nickel affinity followed by size exclusion chromatography. Briefly, E. coli BL21 (DE3) cells were transformed with a recombinant expression vector encoding N-terminally Nickel affinity tagged bromodomains from Brd2, Brd3, Brd4. Cell cultures were incubated at 37° C. with shaking to the appropriate density and induced overnight with IPTG. The supernatant of lysed cells was loaded onto Ni-IDA column for purification. Eluted protein is pooled, concentrated and further purified by size exclusion chromatography. Fractions representing monomeric protein were pooled, concentrated, aliquoted, and frozen at −80° C. for use in subsequent experiments.
(§2) Binding of tetra-acetylated histone H4 and BET bromodomains was confirmed by a Time Resolved Fluorescence Resonance Energy Transfer (TR-FRET) method. N-terminally His-tagged bromodomains (200 nM) and biotinylated tetra-acetylated histone H4 peptide (25-50 nM, Millipore) were incubated in the presence of Europium Cryptate-labeled streptavidin (Cisbio Cat. #610SAKLB) and XL665-labeled monoclonal anti-His antibody (Cisbio Cat. #61HISXLB) in a white 96 well microtiter plate (Greiner). For inhibition assays, serially diluted test compound was added to these reactions in a 0.2% final concentration of DMSO. Final buffer concentrations were 30 mM HEPES pH 7.4, 30 mM NaCl, 0.3 mM CHAPS, 20 mM phosphate pH 7.0, 320 mM KF, 0.08% BSA). After a 2-h incubation at room temperature, the fluorescence by FRET was measured at 665 and 620 nm by a SynergyH4 plate reader (Biotek). Illustrative results with the first bromodomain of Brd4 and the second bromodomain of Brd2 are shown below. The binding inhibitory activity was shown by a decrease in 665 nm fluorescence relative to 620 nm. IC50 values were determined from a dose response curve.

[2] = biological target: T2, Brd4 bromodomain 1 (BRD4(1)) (Homo sapiens, UniProt O60885); assay: Inhibition of tetra-acetylated histone H4 binding to Brd4 bromodomain 1 (TR-FRET); design: key: Active: Compounds with an IC50 value less than 30 μM were deemed to be active.; Not Active: Compounds with an IC50 value less than 30 μM were deemed to be active; settings: tetra-acetylated histone H4 peptide, active = IC50 <30 μM
T2 construct: Illustrative results with the first bromodomain of Brd4; made in house; host or cells: E. coli BL21 (DE3)
Description: as §1, §2

T1 sequence (P25440 344-453 limits assumed): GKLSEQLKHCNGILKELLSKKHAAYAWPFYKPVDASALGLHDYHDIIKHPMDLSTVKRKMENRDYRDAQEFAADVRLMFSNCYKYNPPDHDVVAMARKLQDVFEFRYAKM

Row | SMILES | FRET activity (IC50 <30 μM) BRD2(2) [1] | FRET activity (IC50 <30 μM) BRD4(1) [2]
1 | Cc1noc(C)c1-c1nn(Cc2ccccc2)c(=O)c2ccccc12 [Example 170, 2-Benzyl-4-(3,5-dimethylisoxazol-4-yl)-2H-phthalazin-1-one] | Active | Not Active
2 | Cc1noc(C)c1-c1ccc(=O)n(C(C)(C)c2ccccc2)c1 [Example 106, 5-(3,5-Dimethylisoxazol-4-yl)-1-(2-phenylpropan-2-yl)pyridin-2(1H)-one] | Active | Active
3 | Cc1noc(C)c1-c1ccc(=O)n(CC2CCC2)n1 [Example 88, 2-(Cyclobutylmethyl)-6-(3,5-dimethylisoxazol-4-yl)pyridazin-3(2H)-one] | Active | Active
4 | Cc1noc(C)c1-c1ccc(=O)n(Cc2ccc(S(C)(=O)=O)cc2)c1 [Example 145, 5-(3,5-Dimethylisoxazol-4-yl)-1-(4-(methylsulfonyl)benzyl)pyridin-2(1H)-one] | Active | Active
5 | Cc1noc(C)c1-c1ccc(=O)n([C@@H](C)c2ccc(F)cc2)c1 (single isomer, unassigned) [Example 110] | Active | Active
6 | Cc1noc(C)c1-c1ccc(=O)n(Cc2ncccn2)c1 [Example 163, 5-(3,5-Dimethylisoxazol-4-yl)-1-(pyrimidin-2-ylmethyl)pyridin-2(1H)-one] | Active | Active
7 | Cc1noc(C)c1-c1ccc(=O)n(Cc2ccc(CN(C)C)cc2)c1 [Example 9, 1-(4-((Dimethylamino)methyl)benzyl)-5-(3,5-dimethylisoxazol-4-yl)pyridin-2(1H)-one hydrochloric acid] | Active | Active
8 | Cc1cc(=O)n(Cc2ccccc2)cc1-c1c(C)noc1C [Example 12, 1-Benzyl-5-(3,5-dimethylisoxazol-4-yl)-4-methylpyridin-2(1H)-one] | Active | Active
9 | Cc1cc(F)cc(Cn2nc(-c3c(C)noc3C)ccc2=O)c1 [Example 32, 6-(3,5-Dimethylisoxazol-4-yl)-2-(3-fluoro-5-methylbenzyl)pyridazin-3(2H)-one] | Active | Not Active
10 | COc1ccc(Cn2nc(-c3c(C)noc3C)ccc2=O)cc1 [Example 33, 6-(3,5-Dimethylisoxazol-4-yl)-2-(4-methoxybenzyl)pyridazin-3(2H)-one] | Active | Active
11 | COc1ccc(Oc2ccc(=O)n(Cc3ccccc3)n2)cc1OC [Example 100, 2-Benzyl-6-(3,4-dimethoxyphenoxy)pyridazin-3(2H)-one] | Active | Not Active
12 | Cc1noc(C)c1-c1ccc(=O)n(Cc2ncccn2)n1 [Example 3, 6-(3,5-Dimethylisoxazol-4-yl)-2-(pyrimidin-2-ylmethyl)pyridazin-3(2H)-one] | Active | Not Active
13 | Cc1noc(C)c1-c1ccc(=O)n(C(=O)c2ccc(F)cc2)c1 [Example 68, 5-(3,5-Dimethylisoxazol-4-yl)-1-(4-fluorobenzoyl)pyridin-2(1H)-one] | Active | Active
14 | Cc1noc(C)c1-c1ccc(=O)n(Cc2cccc(Cl)c2)n1 [Example 23, 2-(3-Chlorobenzyl)-6-(3,5-dimethylisoxazol-4-yl)pyridazin-3(2H)-one] | Active | Active
15 | Cc1noc(C)c1-c1ccc(=O)n(Cc2ccc(OC(F)(F)F)cc2)n1 [Example 76, 6-(3,5-Dimethylisoxazol-4-yl)-2-(4-(trifluoromethoxy)benzyl)pyridazin-3(2H)-one] | Active | Active
16 | Cc1noc(C)c1-c1ccc(=O)n(Cc2ccc(F)cc2Cl)c1 [Example 140, 1-(2-Chloro-4-fluorobenzyl)-5-(3,5-dimethylisoxazol-4-yl)pyridin-2(1H)-one] | Active | Active

Row | SMILES | FRET activity (IC50 <30 μM) BRD2(2) [1] | FRET activity (IC50 <30 μM) BRD4(1) [2]
17 | O=c1ccc(-c2cnsc2)cn1Cc1ccccc1 [Example 59, 1-Benzyl-5-(isothiazol-4-yl)pyridin-2(1H)-one] | Active | Not Active
18 | Cc1noc(C)c1-c1ccc(=O)n(Cc2ccc3nccnc3c2)c1 [Example 18, 5-(3,5-Dimethylisoxazol-4-yl)-1-(quinoxalin-6-ylmethyl)pyridin-2(1H)-one] | Active | Active
19 | Cc1noc(C)c1-c1ccc(=O)n(CC2CC2)c1 [Example 48, 1-(Cyclopropylmethyl)-5-(3,5-dimethylisoxazol-4-yl)pyridin-2(1H)-one] | Active | Active
20 | Cc1noc(C)c1-c1ccc(=O)n(Cc2cnoc2)n1 [Example 97, 6-(3,5-Dimethylisoxazol-4-yl)-2-(isoxazol-4-ylmethyl)pyridazin-3(2H)-one] | Not Active | Active
21 | Cc1noc(C)c1-c1cc(NCc2ccccc2)c(=O)n(Cc2ccccc2)c1 [Example 74, 1-Benzyl-3-(benzylamino)-5-(3,5-dimethylisoxazol-4-yl)pyridin-2(1H)-one] | Active | Active
22 | Cc1n[nH]c(C)c1-c1ccc(=O)n(Cc2ccccc2)n1 [Example 86, 2-Benzyl-6-(3,5-dimethyl-1H-pyrazol-4-yl)pyridazin-3(2H)-one] | Active | Active
23 | Cc1noc(C)c1-c1ccc(=O)n(S(=O)(=O)c2ccc(Cl)cc2)c1 [Example 150, 1-((4-Chlorophenyl)sulfonyl)-5-(3,5-dimethylisoxazol-4-yl)pyridin-2(1H)-one] | Not Active | Active
24 | Cc1noc(C)c1-c1ccc(=O)n(Cc2ccccc2OC(F)(F)F)c1 [Example 40, 5-(3,5-Dimethylisoxazol-4-yl)-1-(2-(trifluoromethoxy)benzyl)pyridin-2(1H)-one] | Active | Active
25 | Cc1noc(C)c1-c1ccc(=O)n(Cc2cccc(C(F)(F)F)c2)n1 [Example 31, 6-(3,5-Dimethylisoxazol-4-yl)-2-(3-(trifluoromethyl)benzyl)pyridazin-3(2H)-one] | Active | Active
26 | O=c1ccc(-c2cncs2)cn1Cc1ccccc1 [Example 80, 1-Benzyl-5-(thiazol-5-yl)pyridin-2(1H)-one] | Active | Not Active
27 | Cc1noc(C)c1-c1ccc(=O)n(Cc2ccccc2)c1C [Example 115, 1-Benzyl-5-(3,5-dimethylisoxazol-4-yl)-6-methylpyridin-2(1H)-one] | Active | Active
28 | Cc1noc(C)c1-c1ccc(=O)n(Cc2cc(F)c(F)c(F)c2)n1 [Example 144, 6-(3,5-Dimethylisoxazol-4-yl)-2-(3,4,5-trifluorobenzyl)pyridazin-3(2H)-one] | Active | Active
29 | Cc1noc(C)c1Cn1cc(-c2c(C)noc2C)ccc1=O [Example 11, 5-(3,5-Dimethylisoxazol-4-yl)-1-((3,5-dimethylisoxazol-4-yl)methyl)pyridin-2(1H)-one] | Active | Active
30 | Cc1noc(C)c1-c1ccc(=O)n(Cc2ccc3[nH]cnc3c2)n1 [Example 143, 2-((1H-Benzo[d]imidazol-5-yl)methyl)-6-(3,5-dimethylisoxazol-4-yl)pyridazin-3(2H)-one] | Active | Active
31 | Cc1noc(C)c1-c1ccc(=O)n(Cc2cccc(OC(F)(F)F)c2)n1 [Example 36, 6-(3,5-Dimethylisoxazol-4-yl)-2-(3-(trifluoromethoxy)benzyl)pyridazin-3(2H)-one] | Active | Active
